From publication PMC11587510, “Aromatic Amino Acid Hydroxylases as Off-Targets of Histone Deacetylase Inhibitors” (ACS Chemical Neuroscience, 2024)
“And” between values parts separate entries of the source, which are not always exact repeats. Equal entries are not always repeated. Where two headings read alike, the source gives them in different places.

Assays:
TPH1 = biological target: T1, TPH1 (Homo sapiens, UniProt P17752); test: Differential scanning fluorimetry (DSF) thermal stability assay; format: binding; conditions: for Tm (°C) ± SD (°C), primary screen / ΔTm at 50 µM / ΔTm (°C) ± SD (°C), primary screen: DSF, 50 μM compound; for Tm (°C) ± SD (°C), primary screen: 0.075 mg/mL TPH1, 0.5% DMSO, three independent measurements (a: duplicates); for ΔTm at 50 µM / ΔTm (°C) ± SD (°C), primary screen: vs averaged Tm of 0.5% DMSO controls; for ΔTm at 50 µM: read-out: ΔTm (°C) ± SD (°C), primary screen; for Kd: read-out: apparent KD (μM), dose-response
T1 construct: doubly truncated human TPH1 (ΔNH102-ΔCOOH402); made in house; host or cells: E. coli BL21(DE3)
T1 sequence (P17752 102-402): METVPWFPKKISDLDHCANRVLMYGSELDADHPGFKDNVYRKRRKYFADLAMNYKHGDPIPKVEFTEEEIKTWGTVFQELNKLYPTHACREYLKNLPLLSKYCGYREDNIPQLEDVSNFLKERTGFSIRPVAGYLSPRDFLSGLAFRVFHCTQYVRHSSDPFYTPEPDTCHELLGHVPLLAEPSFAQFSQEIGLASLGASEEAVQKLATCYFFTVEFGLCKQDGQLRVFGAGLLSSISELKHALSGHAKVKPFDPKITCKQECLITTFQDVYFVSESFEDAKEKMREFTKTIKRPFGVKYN
Experimental: A fluorescence-based thermal stability assay (differential scanning fluorimetry, DSF) was used for testing the effects of HDIs on the thermal stability of TPH1.
For initial high throughput screening (HTS), compounds were prepared at a concentration of 10 mM (in some cases, 5 mM) in 100% DMSO. Initial HTS screening was performed on TPH1 with and without compounds using a LightCycler 480 Real-Time PCR System (Roche Applied Science). TPH1 was diluted to 0.075 mg/mL in 50 mM Tris pH 8.0, 200 mM NaCl, 0.5 mM TCEP, and 5% glycerol with 5x SYPRO Orange. Compounds were added to a final concentration of 50 μM. Controls with 0.5% DMSO were performed on each 384-well microplate. Unfolding curves were recorded from 20 to 95 °C at a scan rate of 2 °C/min and monitored at excitation = 465 nm and emission = 610 nm. Selected hits were validated further by serial dilution from 250 μM to 122 nM, keeping the DMSO concentration constant at 2%.
DSF data were analyzed using HTSDSF Explorer.[55] Melting temperature (Tm) was calculated from the maximum value of the first derivative of the unfolding curve. ΔTm (Tm with compound–averaged Tm in DMSO controls) was plotted for all validated curves and a threshold of 2 °C was set (typically, cutoff at ΔTm = 3-fold the SD of the Tm of the DMSO control).
Preliminary binding constants (KD) were calculated by fitting data to the equation [drawing 1] where ΔH0 is the enthalpy of the unfolding of the protein in the presence of ligand ([L]), and R is the gas constant.

[1] = Solubility observed in DSF dose-response; format: physicochemical; conditions: highest concentrations removed before curve fitting
HDAC 1 = conditions: human recombinant HDAC; ref 5 (10.1021/acs.jmedchem.8b01090); cited from earlier work
HDAC 6 = conditions: human recombinant HDAC; ref 5 (10.1021/acs.jmedchem.8b01090); cited from earlier work
human TH isoform 1 (TH1) = biological target: T2, human TH isoform 1 (TH1) (Homo sapiens, UniProt P07101); test: TH enzyme activity assay (HPLC, L-DOPA); format: biochemical; conditions: best-fit IC50 (± SE), nonlinear regression; N.A. = no activity
T2 construct: Full-length human TH isoform 1 (TH1); His6-ZZ fusion partner (one of the two preparations only) (cleaved yes); made in house; host or cells: E. coli BL21(DE3) pLysS (pET3a) or BL21 CodonPlus (pET-ZZ-1a)
T2 sequence (P07101 1-497 isoform P07101-3): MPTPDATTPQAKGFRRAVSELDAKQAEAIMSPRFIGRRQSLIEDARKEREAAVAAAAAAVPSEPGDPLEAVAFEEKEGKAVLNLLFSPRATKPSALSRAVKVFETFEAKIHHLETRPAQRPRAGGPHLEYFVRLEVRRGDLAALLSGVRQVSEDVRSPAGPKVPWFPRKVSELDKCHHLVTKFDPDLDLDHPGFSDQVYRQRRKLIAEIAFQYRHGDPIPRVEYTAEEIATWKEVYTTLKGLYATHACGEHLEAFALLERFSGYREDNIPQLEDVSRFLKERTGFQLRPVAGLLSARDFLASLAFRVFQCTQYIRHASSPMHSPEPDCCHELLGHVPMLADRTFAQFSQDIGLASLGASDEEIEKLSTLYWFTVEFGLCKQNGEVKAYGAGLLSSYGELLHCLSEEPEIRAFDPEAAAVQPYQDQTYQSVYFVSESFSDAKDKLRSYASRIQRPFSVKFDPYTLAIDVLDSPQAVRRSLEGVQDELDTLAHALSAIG
Experimental: The activity of purified PAH, TH, TPH1, and TPH2 was measured using high-performance liquid chromatography (HPLC) as previously described.[50],[56],[57]
TH activities were performed in a standard reaction mixture containing 40 mM Hepes (pH 7.0), 0.1 mg/mL catalase, 10 μM ferrous ammonium sulfate, and 50 μM L-Tyr. Compounds were incubated with TH (0.01 mg/mL) in the reaction mixture for 10 min on ice. The enzymatic reaction was initiated by adding 200 μM BH4 and 2 mM DTT (final concentrations) and stopped by precipitation with 2% (v/v) acetic acid in ethanol after 5 min at 37 °C. The product, L-DOPA, was quantified by HPLC utilizing a fluorescence monitor set at 281 and 314 nm for excitation and emission, respectively.
GraphPad Prism (version 10; La Jolla, CA) was used for analyzing the enzyme inhibition data.

human PAH = biological target: T3, human PAH (Homo sapiens, UniProt P00439); test: PAH enzyme activity assay (HPLC, L-Tyr); format: biochemical; conditions: best-fit IC50 (± SE), nonlinear regression, N.A. = no activity
T3 construct: Full-length human TH isoform 1 (TH1), human PAH, human TPH2, and doubly truncated human TPH1; made in house; host or cells: E. coli TB1
T3 sequence (P00439 1-452): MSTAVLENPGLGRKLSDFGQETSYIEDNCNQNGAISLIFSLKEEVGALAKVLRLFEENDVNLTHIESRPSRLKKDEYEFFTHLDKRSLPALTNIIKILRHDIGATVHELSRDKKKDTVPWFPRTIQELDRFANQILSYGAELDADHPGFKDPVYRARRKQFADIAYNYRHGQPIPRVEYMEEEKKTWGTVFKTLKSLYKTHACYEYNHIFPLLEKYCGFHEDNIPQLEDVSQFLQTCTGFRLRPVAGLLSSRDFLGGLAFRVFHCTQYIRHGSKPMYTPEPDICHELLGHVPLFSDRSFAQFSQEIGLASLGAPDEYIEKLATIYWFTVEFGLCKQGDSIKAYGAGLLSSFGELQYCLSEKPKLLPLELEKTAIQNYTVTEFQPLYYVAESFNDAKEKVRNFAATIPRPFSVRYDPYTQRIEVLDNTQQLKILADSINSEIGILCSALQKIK

[2] = biological target: T4, doubly truncated human TPH1 (ΔNH102-ΔCOOH402) (Homo sapiens, UniProt P17752); test: TPH1 enzyme activity assay (HPLC, 5-OH-Trp); format: biochemical; conditions: for IC50: best-fit IC50 (± SE), nonlinear regression, N.A. = no activity
T4 construct: doubly truncated human TPH1 (ΔNH102-ΔCOOH402); made in house; host or cells: E. coli BL21(DE3)
T4 sequence (P17752 102-402, stated change not applied): as the sequence (P17752 102-402) above
Experimental: (§1) TPH1 enzymatic activity assays were performed with the selected hits from the DSF screening in the presence and absence of 50 μM of each compound. The final concentration of DMSO was 0.5% (v/v), and control experiments used 0.5% DMSO in the absence of ligand. Assays were performed in a standard reaction mixture containing 40 mM Hepes pH 7.0, 200 mM NaCl, 0.1 mg/mL catalase, 0.5 mg/mL BSA, 10 μM ferrous ammonium sulfate, and 30 μM L-tryptophan (L-Trp). Compounds were incubated with TPH1 (0.02 mg/mL) in the reaction mixture for 10 min on ice.

human TPH2 = biological target: T5, human TPH2 (Homo sapiens, UniProt Q8IWU9); test: TPH2 enzyme activity assay (HPLC); format: biochemical; conditions: best-fit IC50 (± SE), nonlinear regression; N.A. = no activity
T5 construct: Full-length human TH isoform 1 (TH1), human PAH, human TPH2, and doubly truncated human TPH1; MBP (cleaved yes); made in house; host or cells: E. coli BL21(DE3)
T5 sequence (Q8IWU9 1-490): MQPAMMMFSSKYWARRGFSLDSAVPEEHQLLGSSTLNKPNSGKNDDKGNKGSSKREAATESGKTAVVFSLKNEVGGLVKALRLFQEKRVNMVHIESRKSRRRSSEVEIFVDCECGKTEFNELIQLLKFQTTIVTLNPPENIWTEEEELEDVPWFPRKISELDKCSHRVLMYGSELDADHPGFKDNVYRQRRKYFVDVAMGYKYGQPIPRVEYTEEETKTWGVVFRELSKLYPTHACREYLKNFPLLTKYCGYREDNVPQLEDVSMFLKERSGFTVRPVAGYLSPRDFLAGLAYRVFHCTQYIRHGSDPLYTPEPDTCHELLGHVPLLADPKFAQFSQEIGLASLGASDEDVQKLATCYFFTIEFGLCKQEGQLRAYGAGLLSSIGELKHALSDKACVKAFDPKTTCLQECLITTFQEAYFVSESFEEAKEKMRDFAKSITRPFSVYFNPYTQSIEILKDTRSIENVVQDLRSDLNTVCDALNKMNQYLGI
Experimental: as §1

human recombinant HDAC1 = biological target: T6, human recombinant HDAC1 (Homo sapiens, UniProt Q13547); test: HDAC1 activity assay (homogeneous fluorescence, ZMAL); format: biochemical; conditions: 1.11–30 μM compound, DMSO (5%) control
T6 construct: purchased BPS Bioscience 50051
T6 sequence (Q13547 whole entry): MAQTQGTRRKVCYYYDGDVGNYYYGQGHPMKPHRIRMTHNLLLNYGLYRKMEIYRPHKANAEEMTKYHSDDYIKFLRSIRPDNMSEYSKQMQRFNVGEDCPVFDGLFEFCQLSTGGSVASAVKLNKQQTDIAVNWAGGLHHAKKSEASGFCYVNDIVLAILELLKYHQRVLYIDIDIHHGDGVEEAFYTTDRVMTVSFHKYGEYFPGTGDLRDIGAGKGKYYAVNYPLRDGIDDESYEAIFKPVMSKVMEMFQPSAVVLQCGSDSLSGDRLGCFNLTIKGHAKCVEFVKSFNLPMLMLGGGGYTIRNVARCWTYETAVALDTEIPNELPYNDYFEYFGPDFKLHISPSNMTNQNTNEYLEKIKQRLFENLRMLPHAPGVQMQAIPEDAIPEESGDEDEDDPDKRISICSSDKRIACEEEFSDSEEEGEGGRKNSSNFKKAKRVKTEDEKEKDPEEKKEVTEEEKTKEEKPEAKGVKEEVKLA
Experimental: HDAC1 inhibition was determined by using a homogeneous fluorescence assay as previously described.[58] For HDAC1 activity assay, OptiPlate-96 black microplates (PerkinElmer) were used.

HDAC 8 = conditions: human recombinant HDAC; ref 1 (PMID: 26443078); cited from earlier work
[3] = estimated from DSF dose-response, 2% DMSO

Row | Compound | Tm (°C) ± SD (°C), primary screen (TPH1) | ΔTm (°C) ± SD (°C), primary screen (TPH1) | Kd (TPH1; [3]) | further results
1 | Oc1ccccc1-c1nc2ccccc2o1 [2-(2-OH-phenyl)benzoxazol, 2-(2-hydroxyphenyl)benzoxazole, reference compound] | 57.6 ± 0.7 °C |  |  | ΔTm at 50 µM (TPH1): 2.3 ± 0.9 °C
2 | Cc1ccc(C(=O)NO)cc1C(=O)Nc1ccc(Cl)cc1 [EG23, 3-(4-Chlorophenylcarbamoyl)-N-hydroxy-4-methylbenzamide] | 58.2 ± 0.2 °C | 2.7 ± 0.2 °C | 14.1 µM | 
3 | Cc1cc2cc(NS(=O)(=O)c3cc(C(=O)NO)ccc3Cl)ccc2n(C)c1=O [EG29, 4-Chloro-3-[(1,3-dimethyl-2-oxo-1,2-dihydroquinolin-6-yl)sulfamoyl]-N-hydroxybenzamide] | 57.8 ± 0.0 °C | 2.3 ± 0.2 °C | 10.3 µM | 
4 | O=C(NO)c1coc(C(c2ccccc2)c2ccccc2)n1 [JS32, 2-(diphenylmethyl)-1,3-oxazole-4-carbohydroxamic acid] | 58.5 ± 0.2 ^a °C | 3.1 ± 0.0 °C | 30.9 µM | solubility at the highest concentrations [1]: solubility issues
5 | O=C(NO)c1ccc(CN2c3ccccc3Sc3ccccc32)cc1 [KV46, 4-[(10H-phenothiazin-10-yl)methyl]-N-hydroxybenzamide] | 59.1 ± 0.5 ^a °C | 3.6 ± 0.3 °C | > 100 µM | solubility at the highest concentrations [1]: solubility issues
6 | COc1ccc2c(c1)N(Cc1ccc(C(=O)NO)cc1)c1ccccc1S2 [KV103, N-Hydroxy-4-[(2-methoxy-10H-Phenothiazin-10-yl)methyl]benzamide] | 59.6 ± 0.7 °C | 4.3 ± 0.5 °C | 49.4 µM | IC50 (HDAC 1): 2.07 ± 0.19 µM; IC50 (HDAC 6): 0.01 ± 0.001 µM; IC50 (human TH isoform 1 (TH1)): 100 ± 128 µM; IC50 (human PAH; read-out: IC50 (μM) PAH): 8.12 ± 1.67 µM; IC50 [2]: 106 ± 177 µM; inhibition of TPH1 activity at 50 μM ([2]; compound 50 μM, 0.5% DMSO): more than 50%; IC50 (human TPH2): 9.78 ± 17.2 µM
7 | N[C@@H](Cc1ccc(Cl)cc1)C(=O)O [L-PCPA, 4-chloro-L-phenylalanine] |  |  |  | effect on HDAC1 activity (human recombinant HDAC1): do not inhibit
8 | COc1ccc(C(=O)NO)cc1OCc1ccccc1 [PZ031, 3-Benzyloxy-4-methoxybenzhydroxamic acid] | 57.0 ± 0.2 °C | 1.6 ± 0.1 °C | 54.6 µM | 
9 | Nc1ccccc1NC(=O)c1ccc(CNC(=O)OCc2cccnc2)cc1 [entinostat, reference compound] | 56.0 ± 0.4 °C |  |  | ΔTm at 50 µM (TPH1): 0.7 ± 0.3 °C
10 | Cc1ccn(-c2cc(Cl)ccc2[C@@H](Oc2cc(-c3ccc(C[C@H](N)C(=O)O)cc3)nc(N)n2)C(F)(F)F)n1 [telotristat] |  |  |  | IC50 (human TH isoform 1 (TH1)): 4.2 µM; IC50 (human PAH; read-out: IC50 (μM) PAH): 4.9 µM; effect on HDAC1 activity (human recombinant HDAC1): do not inhibit
11 | O=C(CCCCCCC(=O)Nc1ccccc1)NO [vorinostat, reference compound] | 56.4 ± 1.9 °C |  |  | ΔTm at 50 µM (TPH1): 1.1 ± 2.1 °C; IC50 (human PAH; IC50 (μM) PAH): 1.72 ± 0.61 µM; IC50 (HDAC 8): […]
12 | CC(C)c1cccc(=O)c(O)c1 [β-thujaplicin, reference compound] |  |  |  | effect of increasing compound concentration on the Tm of TPH1 (TPH1; DSF dose-response): concentration-dependent shift by decreasing the Tm; ΔTm at 50 µM (TPH1): -1.7 ± 0.1 °C; apparent KD (μM), dose-response (TPH1; [3]): very low affinity; IC50 (human TH isoform 1 (TH1)): 1.37 µM and 1.4 µM; IC50 (human PAH; read-out: IC50 (μM) PAH): 0.46 µM and 0.5 µM; IC50 [2]: 12.6 µM; inhibition at 50 µM ([2]; compound 50 μM, 0.5% DMSO): > 50%; IC50 (human TPH2): 12.9 µM

Second part, led by results:

Row | Tm (°C) ± SD (°C), primary screen (TPH1) | ΔTm (°C) ± SD (°C), primary screen (TPH1) | Kd (TPH1; [3]) | Compound | further results
13 | 58.0 ± 0.3 °C | 2.7 ± 0.0 °C |  | COC(=O)[C@H](Cc1ccc(-c2ccc(C)cc2)cc1)NC(=O)CCCCCCC(=O)NO [SW189] | 
14 | 59.7 ± 0.4 °C | 4.4 ± 0.4 °C | 0.7 µM and 1.4 µM | O=C(NO)c1cc2ccccc2[nH]1 [TB74, 1H-Indole-2-hydroxamic acid] | solubility at the highest concentrations [1]: solubility issues; inhibition of TPH1 activity at 50 μM ([2]; compound 50 μM, 0.5% DMSO): no significant inhibition
15 | 58.1 ± 0.3 °C | 2.8 ± 0.1 °C | 76.3 µM | O=C(NO)c1cccc(NCc2ccccc2)c1 [TH28, 3-N-Benzylamino-benzohydroxamate] | 
16 | 60.0 ± 0.3 °C | 4.7 ± 0.1 °C | 1.8 µM | COc1ccc(C(=O)NO)cc1NS(=O)(=O)c1ccc(C)cc1 [TH71, 3-(N-para-touluenyl)-sulfonamido-4-methoxy-benzohydroxamate] | 
